Measured values reported in patent publication US11884647B2, “Compounds and methods for targeting pathogenic blood vessels” (THE REGENTS OF THE UNIVERSITY OF CALIFORNIA, priority 2019, dated 2024).

Tested on: tumor endothelial cells (LL/2 lung cancer tumor)
Assay: Lung LL2 ex vivo model of tumor angiogenesis
Format: cell-based, mouse
Conditions: for 48 hrs (morphology observations after 48 hours) / Cell death: Lung LL2 ex vivo; for Cell death: drug treatment two days; for cytotoxicity at 40 µM / cytotoxicity at 20 µM: Mus musculus, Endothelial cell, 48 h, read-out: Cell death
Description: This example describes a procedure to prepare a primary tumor angiogenesis model for assessing the efficacy of anti-cancer candidate agents.
1. The day before the experiment, spray all necessary tools with 70% ethanol and sterilize them under UV light overnight, including blade, dissecting and micro-dissecting scissors and […]. Place 24-well dishes at 4° C. to pre-chill plates and thaw Matrigel 24 hours before tumor dissection.
2. Spray 70% ethanol on working bench. Prepare two sterile petri dishes with 10 mL sterile PBS. Steps 3 and 4 are for mouse tumor models. For fresh human tumor, directly go to step 5.
3. Euthanize the tumor-bearing mice. Spray 70% ethanol on the mouse and remove the tumor using sterilized dissecting tools (avoid the fur). Rinse the tumor in petri dish with sterile PBS to remove ethanol and fur. Transfer the tumor to a new petri dish with PBS for dissection. Place the dish on ice.
4. Using pre-chilled sterile pipet tips to seed regular Matrigel in 24 well plates on ice. Matrigel (30 μL) is dropped in the middle of each well without touching the edge of the well (avoid introducing bubbles if possible).
5. Cut the tumor in halves using the sterile blade. Identify and isolate healthy tumor tissue that is not necrotic and is within the tumor capsule. Cut the healthy tumor tissue into small pieces. For instance, a suitable size for the tumor tissue is 0.5 mm (H)×0.5 mm (L)×0.3 mm (D) with a total volume of 0.075 mm^3.
6. Gently transfer and embed each tumor piece in the Matrigel drop in the 24-well plate. Place the embedded piece in the bottom and middle of each Matrigel drop. Keep the plate on ice all the time.
7. After seeding the tumor pieces, plates are incubated in a 37° C. cell culture incubator without medium for 10 minutes in order for the Matrigel to solidify.
8. Endothelial Growth Medium (0.5 mL) is added to each well and incubated at 37° C. with 5% CO2. Wait until the new endothelial cells have grown out of the tumor or are larger than 3 mm in diameter until treatment. This usually takes 4 days for the LL2 Lewis lung cancer model and 7 days for the CT26 colon cancer model. For human tumor models, the growth time is typically 2-3 weeks, depending on the tumor type. Media is changed every 4 days during prolonged culture. Typically, when the tumor tissue grows to 2 mm in diameter, it is good for drug testing. A size of about 3 mm in diameter can make visualization easier.
9. When the assay is ready to be analyzed for cell death (e.g., 48 hours after drug addition), prepare the dye mixture by mixing 6 μL of green dye to stain live cells (5 mg/mL Fluorescein diacetate or FDA in DMSO) with 30 μL of red dye (2.5 mg/mL Propidium iodide or PI in PBS) to stain dead cells in an Eppendorf tube. The FDA dye needs to be stored frozen in a −20° C. freezer because it has a labile ester bond.
10. Add 1 μL of the dye mixture to each well of the 24-well dish. It is usually performed one 24-well dish at a time given the amount of time needed to take pictures (the green dye is not as stable in the cells in the long term).
11. Gently rock the dish a few times to mix the dye with the media in the wells and incubate the dish at 37° C. for 10 min (too long incubation can make the green signal too intense).
12. Wash each well with 0.5 mL of sterile PBS and then add 0.5 mL of phenol red free SFM to each well. Alternatively 0.5 mL of regular Endothelial Cell Growth Media can be added to each well if this well needs to be continuously maintained after the experiment.
13. Look through all wells on an inverted microscope using the 2× objective lens to observe morphological changes.
14. Taking pictures in the red and green channels would allow not only the recording of the result but also more accurate quantitation of the result. To take pictures for all the wells, first pick a well that has robust red and green signals. […]

Row | Molecule | cytotoxicity at 20 µM [%] | further results
1 | 3-((4-(heptyloxy)phenyl)sulfonyl)-4-(4- (4-(2-mPEGoxyethyl)piperazin-1- yl)piperidin-1-yl)-6- (methylsulfinyl)quinoline [compound 280] | – | 48 hrs (morphology observations after 48 hours) (Conc. 20 μm): *** (100% of endothelial cells vesicularize in cell shape); Cell death (Conc. 20 μm): 100%
2 | 4-([1,4′:1′,4″-terpiperidin]-1″-yl)-6- (methyl(λ^1-oxidanyl)-λ^3-sulfanyl)-3-((4- (tetradecyloxy)phenyl)sulfonyl)quinoline [compound 347] | – | 48 hrs (morphology observations after 48 hours) (Conc. 20 μm): *** (100% of endothelial cells vesicularize in cell shape); Cell death (Conc. 20 μm): 30%
3 | COc1ccc(S(=O)(=O)c2cnc3ccc(OC(F)(F)F)cc3c2NCCO)cc1OC [compound 73, 2-((3-((3,4-dimethoxyphenyl)sulfonyl)-6-(trifluoromethoxy)quinolin-4-yl)amino)ethan-1-ol] | – | cytotoxicity at 40 µM: 10%
4 | CCc1ccc(S(=O)(=O)c2cnc3ccc(OC)cc3c2NN2CCN(C)CC2)cc1 [compound 83, 3-((4-ethylphenyl)sulfonyl)-6-methoxy-N-(4-methylpiperazin-1-yl)quinolin-4-amine] | – | Cell death (Conc. 40 μm): 20%
5 | CCc1ccc(S(=O)(=O)c2cnc3ccc(OC(F)(F)F)cc3c2N2CCC(N(CC)CC)CC2)cc1 [compound 103, N,N-diethyl-1-(3-((4-ethylphenyl)sulfonyl)-6-(trifluoromethoxy)quinolin-4-yl)piperidin-4-amine] | 10 | –
6 | CCc1ccc(S(=O)(=O)c2cnc3ccc(OC(F)(F)F)cc3c2NCCCCCO)cc1 [compound 104, 5-((3-((4-ethylphenyl)sulfonyl)-6-(trifluoromethoxy)quinolin-4-yl)amino)pentan-1-ol] | 20 | –
7 | CCc1ccc(S(=O)(=O)c2cnc3ccc(OC(F)(F)F)cc3c2NN2CCCCC2)cc1 [compound 105, 3-((4-ethylphenyl)sulfonyl)-N-(piperidin-1-yl)-6-(trifluoromethoxy)quinolin-4-amine] | 0 | –
8 | CCc1ccc(S(=O)(=O)c2cnc3ccc(OC(F)(F)F)cc3c2NCc2ccncc2)cc1 [compound 106, 3-((4-ethylphenyl)sulfonyl)-N-(pyridin-4-ylmethyl)-6-(trifluoromethoxy)quinolin-4-amine] | 5 | –
9 | CCc1ccc(S(=O)(=O)c2cnc3ccc(OC(F)(F)F)cc3c2Nc2ccncc2)cc1 [compound 107, 3-((4-ethylphenyl)sulfonyl)-N-(pyridin-4-yl)-6-(trifluoromethoxy)quinolin-4-amine] | 0 | –
10 | CCc1ccc(S(=O)(=O)c2cnc3ccc(OC(F)(F)F)cc3c2-n2cccc2)cc1 [compound 108, 3-((4-ethylphenyl)sulfonyl)-4-(1H-pyrrol-1-yl)-6-(trifluoromethoxy)quinoline] | 0 | –
11 | CCc1ccc(S(=O)(=O)c2cnc3ccc(OC(F)(F)F)cc3c2-n2cccn2)cc1 [compound 109, 3-((4-ethylphenyl)sulfonyl)-4-(1H-pyrazol-1-yl)-6-(trifluoromethoxy)quinoline] | 0 | –
12 | CCc1ccc(S(=O)(=O)c2cnc3ccc(OC(F)(F)F)cc3c2NCCCCO)cc1 [compound 111, 4-((3-((4-ethylphenyl)sulfonyl)-6-(trifluoromethoxy)quinolin-4-yl)amino)butan-1-ol] | 30 | –
13 | COc1ccc(S(=O)(=O)c2cnc3ccc(OC(F)(F)F)cc3c2N2CCC(N3CCC(O)CC3)CC2)cc1 [compound 113, 1′-(3-((4-methoxyphenyl)sulfonyl)-6-(trifluoromethoxy)quinolin-4-yl)-[1,4′-bipiperidin]-4-ol] | – | Cell death (Conc. 20 μm): 10%
14 | COc1ccc(S(=O)(=O)c2cnc3ccc([N+](=O)[O-])cc3c2N2CCC(N3CCCCC3)CC2)cc1 [compound 114, 4-([1,4′-bipiperidin]-1′-yl)-3-((4-methoxyphenyl)sulfonyl)-6-nitroquinoline] | 5 | –
15 | COc1ccc(S(=O)(=O)c2cnc3ccc(CC#N)cc3c2N2CCC(N3CCCCC3)CC2)cc1 [compound 115, 2-(4-([1,4′-bipiperidin]-1′-yl)-3-((4-methoxyphenyl)sulfonyl)quinolin-6-yl)acetonitrile] | – | Cell death (Conc. 20 μm): 10%
16 | O=S(=O)(c1ccc(OC(F)(F)F)cc1)c1cnc2ccc(OC(F)(F)F)cc2c1N1CCC(N2CCCCC2)CC1 [compound 120, 4-([1,4′-bipiperidin]-1′-yl)-6-(trifluoromethoxy)-3-((4-(trifluoromethoxy)phenyl)sulfonyl)quinoline] | – | Cell death (Conc. 20 μm): 5%
17 | COc1ccc(S(=O)(=O)c2cnc3cc(OC)c(OC)cc3c2N2CCC(N3CCCCC3)CC2)cc1OC [compound 122, 4-([1,4′-bipiperidin]-1′-yl)-3-((3,4-dimethoxyphenyl)sulfonyl)-6,7-dimethoxyquinoline] | 10 | –
18 | CCc1ccc(S(=O)(=O)c2cnc3ccc(OC(F)(F)F)cc3c2-n2cnnn2)cc1 [compound 125, 3-((4-ethylphenyl)sulfonyl)-4-(1H-tetrazol-1-yl)-6-(trifluoromethoxy)quinoline] | – | Cell death (Conc. 20 μm): 10%
19 | CCc1ccc(S(=O)(=O)c2cnc3ccc(OC(F)(F)F)cc3c2NN2CCOCC2)cc1 [compound 126, N-(3-((4-ethylphenyl)sulfonyl)-6-(trifluoromethoxy)quinolin-4-yl)morpholin-4-amine] | 10 | –
20 | CCOC(=O)c1ccc2ncc(S(=O)(=O)c3ccc(CC)cc3)c(-n3nnc4ccccc43)c2c1 [compound 133, ethyl 4-(1H-benzo[d][1,2,3]triazol-1-yl)-3-((4-ethylphenyl)sulfonyl)quinoline-6-carboxylate] | 10 | –
21 | CCOC(=O)c1ccc2ncc(S(=O)(=O)c3ccc(OC)cc3)c(-n3ccnc3)c2c1 [compound 141, ethyl 4-(1H-imidazol-1-yl)-3-((4-methoxyphenyl)sulfonyl)quinoline-6-carboxylate] | 90 | –
22 | CNC(=O)c1ccc2ncc(S(=O)(=O)c3ccc(OC)cc3)c(N3CCC(N4CCCCC4)CC3)c2c1 [compound 143, 4-([1,4′-bipiperidin]-1′-yl)-3-((4-methoxyphenyl)sulfonyl)-N-methylquinoline-6-carboxamide] | – | Cell death (Conc. 40 μm): 40%
23 | CCCCOc1ccc(S(=O)(=O)c2cnc3ccc(SC)cc3c2N2CCC(N3CCC(O)CC3)CC2)cc1 [compound 162, 1′-(3-((4-butoxyphenyl)sulfonyl)-6-(methylthio)quinolin-4-yl)-[1,4′-bipiperidin]-4-ol] | – | cytotoxicity at 40 µM: 70%
24 | CCCCOc1ccc(S(=O)(=O)c2cnc3ccc([S+](C)[O-])cc3c2N2CCC(N3CCCCC3)CC2)cc1 (stereo not shown) [compound 167, 4-([1,4′-bipiperidin]-1′-yl)-3-((4-butoxyphenyl)sulfonyl)-6-(methylsulfinyl)quinoline] | 40 | –
25 | CCCCOc1ccc(S(=O)(=O)c2cnc3ccc([S+](C)[O-])cc3c2N2CCC(N3CCC(O)CC3)CC2)cc1 (stereo not shown) [compound 168, 1′-(3-((4-butoxyphenyl)sulfonyl)-6-(methylsulfinyl)quinolin-4-yl)-[1,4′-bipiperidin]-4-ol] | 10 | –
26 | CCCCOc1ccc(S(=O)(=O)c2cnc3ccc(S(C)(=O)=O)cc3c2N2CCC(N3CCCCC3)CC2)cc1 [compound 169, 4-([1,4′-bipiperidin]-1′-yl)-3-((4-butoxyphenyl)sulfonyl)-6-(methylsulfonyl)quinoline] | 40 | –
